Key:
Format in all cases: functional, cell-based
[1] = Antiproliferative activity against human NCI-H196 cells assessed as reduction in cell viability incubated for 48 hrs by Cell-titer Glo luminescent assay; conditions: NCI-H196, 48 h
NCI-H1963 = assay: Antiproliferative activity against human NCI-H1963 cells assessed as reduction in cell viability incubated for 48 hrs by Cell-titer Glo luminescent assay; conditions: NCI-H1963, 48 h
OVCAR-3 = assay: Cytotoxicity against human OVCAR-3 cells assessed as reduction in cell growth incubated for 72 hrs by MTT assay; conditions: OVCAR-3, 72 h
NCI-H82 = assay: Antiproliferative activity against human NCI-H82 cells assessed as reduction in cell viability incubated for 48 hrs by Cell-titer Glo luminescent assay; conditions: NCI-H82, 48 h
NCI-H1299 = assay: Antiproliferative activity against human NCI-H1299 cells assessed as reduction in cell viability incubated for 48 hrs by Cell-titer Glo luminescent assay; conditions: NCI-H1299, 48 h
MDA-MB-231 = assay: Cytotoxicity against human MDA-MB-231 cells assessed as reduction in cell growth incubated for 72 hrs by MTT assay; conditions: MDA-MB-231, 72 h
HeLa = assay: Antiproliferative activity against human HeLa cells assessed as reduction in cell viability by MTS assay
MDA-MB-435 = assay: Cytotoxicity against human MDA-MB-435 cells assessed as reduction in cell growth incubated for 72 hrs by MTT assay; conditions: MDA-MB-435, 72 h
NCI-H69 = assay: Antiproliferative activity against human NCI-H69 cells assessed as reduction in cell viability incubated for 48 hrs by Cell-titer Glo luminescent assay; conditions: NCI-H69, 48 h
[2] = Antiproliferative activity against human NSCLC cells assessed as reduction in cell viability incubated for 48 hrs by Cell-titer Glo luminescent assay
HT-29 = assay: Cytotoxicity against human HT-29 cells assessed as reduction in cell growth incubated for 72 hrs by MTT assay; conditions: HT-29, 72 h
HCT-8 = assay: Cytotoxicity against human HCT-8 cells assessed as reduction in cell growth incubated for 72 hrs by MTT assay; conditions: HCT-8, 72 h
A549 = assay: Antiproliferative activity against human A549 cells assessed as reduction in cell viability incubated for 48 hrs by Cell-titer Glo luminescent assay; conditions: A549, 48 h
NCI-H526 = assay: Antiproliferative activity against human NCI-H526 cells assessed as reduction in cell viability incubated for 48 hrs by Cell-titer Glo luminescent assay; conditions: NCI-H526, 48 h
SW-620 = assay: Cytotoxicity against human SW620 cells assessed as reduction in cell growth incubated for 72 hrs by MTT assay; conditions: SW-620, 72 h

## C[C@H]1O[C@@H](O[C@H]2[C@@H](O)C[C@H](O[C@H]3[C@@H](O)C[C@H](O[C@H]4CC[C@@]5(C)[C@H](CC[C@@H]6[C@@H]5C[C@@H](O)[C@]5(C)[C@@H](C7=CC(=O)OC7)CC[C@]65O)C4)O[C@@H]3C)O[C@@H]2C)C[C@H](O)[C@@H]1O [DIGOXIN]
[1]
  IC50: 50 nM
NCI-H1963
  IC50: 50 nM
OVCAR-3
  IC50: 100 nM
NCI-H82
  IC50: 50 nM
NCI-H1299
  IC50: 50 nM
MDA-MB-231
  IC50: 100 nM
HeLa
  IC50: 0.2 nM
MDA-MB-435
  IC50: 100 nM
NCI-H69
  IC50: 50 nM
[2]
  IC50: 50 nM
HT-29
  IC50: 100 nM
HCT-8
  IC50: 100 nM
A549
  IC50: 50 nM
NCI-H526
  IC50: 50 nM
SW-620
  IC50: 100 nM

— ChEMBL document CHEMBL6083245, “Digoxin and its Na+/K+-ATPase-targeted actions on cardiovascular diseases and cancer” (Bioorg Med Chem, 2024)
